Assay results taken from publication PMC5992921, “The effect of different divalent cations on the kinetics and fidelity of Bacillus stearothermophilus DNA polymerase” (AIMS biophysics, 2018).

Biological target: T1, BST pol (Bacillus stearothermophilus DNA polymerase) (Geobacillus stearothermophilus, UniProt P52026)
T1 construct: gene polA
T1 sequence (P52026 297-876 limits assumed): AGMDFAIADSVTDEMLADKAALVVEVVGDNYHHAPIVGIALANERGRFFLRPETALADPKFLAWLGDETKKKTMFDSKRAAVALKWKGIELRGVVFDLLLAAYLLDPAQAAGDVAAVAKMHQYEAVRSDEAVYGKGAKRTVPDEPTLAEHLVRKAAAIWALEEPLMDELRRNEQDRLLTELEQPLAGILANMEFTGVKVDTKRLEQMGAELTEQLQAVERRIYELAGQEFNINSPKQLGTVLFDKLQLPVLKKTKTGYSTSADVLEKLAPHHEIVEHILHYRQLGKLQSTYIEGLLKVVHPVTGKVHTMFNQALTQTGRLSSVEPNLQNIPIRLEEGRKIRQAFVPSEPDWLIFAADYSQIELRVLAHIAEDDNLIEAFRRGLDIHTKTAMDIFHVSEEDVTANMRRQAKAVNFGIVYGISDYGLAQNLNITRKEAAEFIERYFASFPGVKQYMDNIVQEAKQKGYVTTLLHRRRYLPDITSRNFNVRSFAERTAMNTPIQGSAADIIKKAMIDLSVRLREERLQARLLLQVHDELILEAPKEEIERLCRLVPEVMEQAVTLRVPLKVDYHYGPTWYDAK
Test: equilibrium 2-aminopurine fluorescence quenching titration
Type: binding
Conditions: read-out: Kd,g

Kd: 1460 ± 130 µM
SMILES: Nc1ccn([C@H]2C[C@H](O)[C@@H](COP(=O)(O)OP(=O)(O)OP(=O)(O)O)O2)c(=O)n1 [dCTP]
